In assay [1] the test system is BJ. Kind of assay: BJ-TERT fibroblast viability loss – cell-based, RAS-independent, luminescence, dose response (AID 1933). The assay is classed as functional. The note with it: Homo sapiens.
Assay [2] is described as follows: cells. The class given is functional, cell-based.
Assay [3] deals with BJ. Kind of assay: cells. The assay is classed as functional, cell-based. The note with it: Homo sapiens.
A short description of assay [4]: cells. The class given is functional, cell-based. The source holds these as a separate data set.
Assay [5] concerns BJ. Kind of assay: BJ-TERT-LT-ST fibroblast viability loss – cell-based, RAS-independent, luminescence, dose response (AID 1935).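 Note: BJ fibroblasts immortalized with TERT plus LT and ST oncogenes.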 The settings on record: Homo sapiens. The class given is functional.
Assay [6] is described as follows: DRD fibroblast viability loss – cell-based, non-viral oncogenic, luminescence, dose response (AID 1934). The class given is functional. The settings on record: Homo sapiens.
A short description of assay [7]: THP-1 cell cytotoxicity, dose response, cytotoxicity control for non-replicating M. tuberculosis project (AID 489025). The assay is classed as functional.
Assay [8] is described as follows: HepG2 cell cytotoxicity, dose response, cytotoxicity control for non-replicating M. tuberculosis project (AID 489018). The assay is classed as functional. The note with it: Mycobacterium tuberculosis.
Assay [9] in a line: Vero E6 cell cytotoxicity, dose response, cytotoxicity control for non-replicating M. tuberculosis project, secondary assay (AID 492998). The assay is classed as functional, VeroE6. The note with it: Vero C1008.
Assay [10] in a line: cells. The class given is functional.
The test system of another assay is INS1. The assay is described as follows: INS-1E survival protection against cytokine death – cell-based, luminescence, retest, dose response (AID 449756).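 Note: cell death triggered by IL-1 beta plus TNF-alpha plus IFN-gamma mixture; protective hits raise ATP signal compared with cytokine alone wells.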 The class given is functional. The note with it: Rattus norvegicus.
The target in a further assay is Major prion protein (Homo sapiens, UniProt P04156). The assay is classed as functional, cell-based.
Assay [11] can be described thus: Trypanosoma cruzi growth suppression in host cells – NIH3T3 host cells, beta-gal luminescence, confirmation (AID 2044).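 Note: intracellular parasites grown in NIH/3T3 mouse fibroblasts as host cells; luminescent beta-galactosidase reporter signal from transgenic T. cruzi replicating inside host cells; inhibitors lower the luminescence signal.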 The assay is classed as functional, cell-based.
The nature of assay [12]: NIH3T3 cell viability loss – ATP luminescence, mouse fibroblasts, counter-screen, dose response (AID 2010).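 Note: cells exposed to compound for about 90 hours before reading.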 The class given is functional, cell-based. For orientation: The purpose of a counterscreen is to sort out artefacts and off-target activity.
For the next assay, the target named is T1, Protein skinhead-1 (Caenorhabditis elegans, UniProt P34707).
T1 sequence (P34707 whole entry): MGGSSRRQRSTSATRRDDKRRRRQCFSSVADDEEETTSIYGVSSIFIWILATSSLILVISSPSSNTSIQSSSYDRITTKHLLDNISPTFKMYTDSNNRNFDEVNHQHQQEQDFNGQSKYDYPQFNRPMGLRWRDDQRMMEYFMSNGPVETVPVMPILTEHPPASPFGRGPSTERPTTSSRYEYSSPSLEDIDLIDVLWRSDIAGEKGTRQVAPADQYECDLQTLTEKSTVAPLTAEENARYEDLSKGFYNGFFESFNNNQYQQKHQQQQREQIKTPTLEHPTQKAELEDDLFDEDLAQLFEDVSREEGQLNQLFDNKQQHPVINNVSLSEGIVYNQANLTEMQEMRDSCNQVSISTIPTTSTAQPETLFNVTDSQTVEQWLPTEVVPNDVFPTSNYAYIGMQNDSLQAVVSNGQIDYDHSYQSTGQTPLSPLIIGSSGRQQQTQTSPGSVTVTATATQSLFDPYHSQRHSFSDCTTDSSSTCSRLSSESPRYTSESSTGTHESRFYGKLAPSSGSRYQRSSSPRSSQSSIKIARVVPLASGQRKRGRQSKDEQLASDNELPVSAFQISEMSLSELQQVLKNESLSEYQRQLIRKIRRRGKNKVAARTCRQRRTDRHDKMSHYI
The assay is classed as functional.

The target in the next assay is Genome polyprotein (dengue virus type 2, UniProt P29990). Kind of assay: flavivirus cap methylation enzyme inhibition – biochemical, confirmation dose response, primary screen (AID 588689). The assay is classed as functional.
For assay [13], the target named is T2, Long-chain-fatty-acid--AMP ligase FadD28 (Mycobacterium tuberculosis, UniProt P9WQ59).
T2 sequence (P9WQ59 whole entry): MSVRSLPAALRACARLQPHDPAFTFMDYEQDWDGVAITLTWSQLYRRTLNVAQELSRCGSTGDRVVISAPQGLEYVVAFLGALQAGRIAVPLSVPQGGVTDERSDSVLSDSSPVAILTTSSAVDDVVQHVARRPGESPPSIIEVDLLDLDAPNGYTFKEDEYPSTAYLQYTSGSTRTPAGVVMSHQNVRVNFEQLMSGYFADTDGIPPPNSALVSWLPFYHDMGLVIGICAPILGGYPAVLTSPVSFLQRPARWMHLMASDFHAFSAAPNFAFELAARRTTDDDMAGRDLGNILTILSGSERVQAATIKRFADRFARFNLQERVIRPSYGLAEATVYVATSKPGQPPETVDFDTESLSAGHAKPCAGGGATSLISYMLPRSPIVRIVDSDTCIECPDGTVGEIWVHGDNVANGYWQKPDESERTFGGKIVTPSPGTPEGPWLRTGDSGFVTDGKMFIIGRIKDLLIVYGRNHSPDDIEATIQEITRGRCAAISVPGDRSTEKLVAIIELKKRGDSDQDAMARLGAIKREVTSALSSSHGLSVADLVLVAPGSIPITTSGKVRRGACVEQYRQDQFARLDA
The assay is described as follows: Fluorescence polarization aasay to screen for inhibitors that compete for the binding of FadD28 to a bisubstrate Measured in Biochemical System Using Plate Reader - 2147-01_Inhibitor_Dose_CherryPick_Activity. The assay is classed as functional, Mycobacterium tuberculosis H37Rv. In general terms: In fluorescence polarisation assays a small probe gives low polarisation when free and higher when bound to something large.

A further assay deals with SUMO-activating enzyme (Homo sapiens, UniProt Q9UBT2). The assay is described as follows: blockers of UBC9-mediated SUMO conjugation – biochemical, AlphaScreen, SUMOylation inhibitor project, confirmation (AID 2018). The class given is functional.
Assay [14] is described as follows: cells.
Another assay concerns the target Prothrombin (Homo sapiens, UniProt P00734). Kind of assay: Thrombin 1536 HTS Dose Response Confirmation. [Related pubchem assays: 1046 (Thrombin 1536 HTS; hits were confirmed in this assay)]. The class given is functional.
Assay [15] addresses Luciferin 4-monooxygenase (Photinus pyralis, UniProt P08659). The assay is described as follows: inhibition of purified Photinus pyralis luciferase – biochemical, luminescence, dose response (AID 1891).
Assay [16] in a line: Luminescence Cell-Based Dose Confirmation HTS to Identify Inhibitors of Platelet Dense Granule Release. [Related pubchem assays: 1663 (Primary HTS), 1678 (Summary of Project)]. The assay is classed as functional.
The target of assay [17] is T3, Adenosylmethionine-8-amino-7-oxononanoate aminotransferase (Mycobacterium tuberculosis, UniProt P9WQ81).
T3 sequence (P9WQ81 whole entry): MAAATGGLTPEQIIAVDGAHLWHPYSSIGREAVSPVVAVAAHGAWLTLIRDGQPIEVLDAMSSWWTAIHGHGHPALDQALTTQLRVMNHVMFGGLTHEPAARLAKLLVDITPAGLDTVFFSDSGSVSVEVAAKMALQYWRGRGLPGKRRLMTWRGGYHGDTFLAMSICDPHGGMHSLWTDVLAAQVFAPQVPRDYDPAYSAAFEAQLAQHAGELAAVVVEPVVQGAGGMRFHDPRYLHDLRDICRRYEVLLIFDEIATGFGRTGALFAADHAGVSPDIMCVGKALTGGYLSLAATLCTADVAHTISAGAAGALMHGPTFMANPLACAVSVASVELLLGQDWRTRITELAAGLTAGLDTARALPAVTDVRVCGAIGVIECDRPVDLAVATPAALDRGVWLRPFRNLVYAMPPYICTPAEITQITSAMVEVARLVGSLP
The assay is described as follows: Mycobacterium tuberculosis BioA enzyme inhibitor Measured in Biochemical System Using Plate Reader - 2163-02_Inhibitor_Dose_CherryPick_Activity. The assay is classed as functional, Mycobacterium tuberculosis UT205.

Assay [18] has as its target T4, Calpain-2 catalytic subunit (Sus scrofa, UniProt P43367).
T4 sequence (P43367 whole entry): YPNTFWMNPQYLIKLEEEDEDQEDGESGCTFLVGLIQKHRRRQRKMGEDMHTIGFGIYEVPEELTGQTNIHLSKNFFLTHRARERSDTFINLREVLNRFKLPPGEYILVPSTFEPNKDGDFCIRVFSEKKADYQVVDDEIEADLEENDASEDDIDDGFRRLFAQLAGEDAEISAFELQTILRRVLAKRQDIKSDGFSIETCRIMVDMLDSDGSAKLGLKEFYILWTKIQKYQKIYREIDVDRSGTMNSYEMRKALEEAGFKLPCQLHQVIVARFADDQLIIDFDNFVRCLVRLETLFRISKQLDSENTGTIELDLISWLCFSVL
The assay is described as follows: m-calpain protease blockers, concentration series – biochemical, fluorogenic peptide substrate, dose response (AID 1420). The class given is functional.

Activity calls are given as the source filed them.

The term EC50 denotes the concentration giving half of the maximal effect. For orientation: CC50 means the concentration that lowers cell viability or growth by half. As usually defined, the IC50 is the midpoint of a concentration-inhibition curve. For orientation: AC50 means the concentration at which the activity in the assay is half-maximal.

`O=[N+]([O-])c1cccnc1N/N=C/c1ccccc1O`: the EC50 in the assay with BJ [1] was 9.77 µM (active); in the assay “cells [2]”, > 350 µM (not active); in the assay on BJ [3], 10.9 µM (active); in the assay “cells [4]” it was 6.41 µM (active); with BJ [5], 21.6 µM (active); in assay [6], 8.92 µM (active). Further, the CC50 in [7] was 0.766 µM (active); in assay [8], 14.4 µM (active); in assay [9] it was 3.08 µM (active). Besides, the IC50 in the assay “cells [10]” is 3.92 µM (active). Besides, the half-maximal activity concentration (AC50) in the assay on INS1 was 0.691 µM (active).
For the compound `Cc1ccc(-n2nc3c(=S)[nH]nc(C)c3c2C)cc1`, the IC50 at Major prion protein was 0.143 µM (active).
As to `COC(=O)c1c(NC(=O)CN2CCN(Cc3ccc4c(c3)OCO4)CC2)sc(C)c1C`, the EC50 in [11] is 1.88 µM (active); in assay [12], > 60 µM (not active). For the same compound, the IC50 at Protein skinhead-1 is > 100 µM (inactive).
For `Cn1c(-c2ccc(Br)o2)nc2cc(Br)ccc21`, the IC50 on Protein skinhead-1 was > 100 µM (inactive).
On to `N#C/C(=C\c1ccccc1)C(=O)NNS(=O)(=O)c1cccc([N+](=O)[O-])c1`, for which the IC50 at Genome polyprotein was 51.8 µM (active).
Turning to `COC(=O)c1cc(NC(=O)CN(c2ccc3c(c2)OCO3)S(C)(=O)=O)ccc1Cl`, the IC50 at Protein skinhead-1 is > 100 µM (inactive).
Consider `Cc1ccc(OCC(=O)N/N=C\c2c(C)n(C)c3ccccc23)c([N+](=O)[O-])c1`, for which the AC50 in assay [13] was 68 µM (active).
With `COc1cc(C(C2C(=O)CC(C)(C)CC2=O)C2C(=O)CC(C)(C)CC2=O)ccc1O`, the concentration for half-maximal inhibition (IC50) on Genome polyprotein was 62.3 µM (active).
As for `COc1ccccc1-n1c(C)c(C(=O)O)c2cc(OC)c3ccccc3c21`, the AC50 in assay [13] was 60.9 µM (active).
`O=C1/C(=C/c2coc3ccc(O)cc3c2=O)SC(=S)N1c1ccccc1`: the IC50 at SUMO-activating enzyme is 39.4 µM (active).
As for `O=C(NC(=S)NCCO)c1sc2ccccc2c1Cl`, the IC50 at Major prion protein was 3.4 µM (active); in the assay “cells [14]” it was > 138 µM (inactive).
Consider `CCOC(=O)N1CCN(C(=O)CSCC(=O)Nc2nc(-c3ccc(Cl)s3)cs2)CC1`, for which the IC50 on Prothrombin is 1.95 µM (active).
On to `Cc1cc(NC(=O)COc2ccc3ccccc3c2Br)no1`, for which the IC50 was 1.39 µM (active) on Major prion protein and 133 µM (inactive) in the assay “cells [14]”.
Regarding `Clc1ccc(Cn2nnc(-c3ccccc3)n2)cc1`, the IC50 at Protein skinhead-1 was 12.6 µM (active).
As to `Cc1nn(C)cc1CN(C)C(=O)c1cc(-c2ccccc2)nc2ccc(Br)cc12`, the values for the IC50 on Major prion protein and in the assay “cells [14]” were 6.12 µM (active) and 75.1 µM (inactive), respectively.
Regarding `C=CCOc1ccc(C(c2c(O)nc(SC)nc2O)c2c(O)nc(SC)nc2O)cc1`, the IC50 at Genome polyprotein is 33.3 µM (active).
With `O=C(COC(=O)c1cccc(S(=O)(=O)N2CCCCCC2)c1)Nc1ccccc1`, the AC50 in [13] is > 100 µM (inactive).
Regarding `Cc1nn(-c2ncc(C(F)(F)F)cc2Cl)c(=O)n1-c1ccccc1`, the IC50 at Protein skinhead-1 was > 100 µM (inactive).
Turning to `COC(=O)c1n[nH]c(NC(=O)C(C)(C)C)n1`, on Prothrombin, the IC50 was 1.43 µM (active).
Consider `O=C(Nc1ncc2c(n1)CC(c1ccco1)CC2=O)c1ccco1` (stereo unspecified), for which the EC50 in assay [15] and in [16] was > 112 µM (not active) each time. The AC50 in assay [17] is 6.29 µM (active).
Turning to `Cc1ccc(NC(C)C(=O)N/N=C/c2ccc([N+](=O)[O-])s2)cc1` (stereo unspecified), the EC50 was 0.494 µM (active) in assay [11] and > 60 µM (not active) in assay [12]. For the same compound, the figures for the CC50 in assay [7] and in [9] were 25.9 µM (active) and 15.8 µM (active), respectively. Also, in “cells [10]”, the IC50 was 7.04 µM (active).
For the compound `O=c1[nH]c(=O)n(Cc2ccccc2)c2c1C(C(F)(F)F)(C(F)(F)F)N=C(c1ccco1)N2`, the IC50 at Prothrombin was 31.5 µM (active).
`Cc1ccc(-n2nc3c(S)nnc(C)c3c2C)cc1`: the IC50 in “cells [14]” is > 138 µM (inactive).
As for `Cc1cc(NC(=O)CSc2nc3cc(C(=O)NCCCOC(C)C)ccc3c(=O)n2Cc2ccco2)no1`, the IC50 at SUMO-activating enzyme is 38.3 µM (active); in [18], 16.1 µM (not active).

The values above are taken from ChEMBL document CHEMBL1201862, “PubChem BioAssay data set” (2004).
